According to US10696655B2, “Therapeutic compounds and uses thereof” (GENENTECH, INC., priority 2017, dated 2020):

target: CBP (Homo sapiens (Human), UniProt Q92793); assay: CBP TR-FRET binding assay; conditions: His/Flag tagged CBP 4 nM, biotin-ligand 60 nM; read-out: CBP HTRF IC50;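 note: displacement of a biotinylated small-molecule ligand from purified recombinant CBP read by TR-FRET, DMSO-only wells as control, IC50 from nonlinear curve fit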
Sequence (Q92793 whole entry): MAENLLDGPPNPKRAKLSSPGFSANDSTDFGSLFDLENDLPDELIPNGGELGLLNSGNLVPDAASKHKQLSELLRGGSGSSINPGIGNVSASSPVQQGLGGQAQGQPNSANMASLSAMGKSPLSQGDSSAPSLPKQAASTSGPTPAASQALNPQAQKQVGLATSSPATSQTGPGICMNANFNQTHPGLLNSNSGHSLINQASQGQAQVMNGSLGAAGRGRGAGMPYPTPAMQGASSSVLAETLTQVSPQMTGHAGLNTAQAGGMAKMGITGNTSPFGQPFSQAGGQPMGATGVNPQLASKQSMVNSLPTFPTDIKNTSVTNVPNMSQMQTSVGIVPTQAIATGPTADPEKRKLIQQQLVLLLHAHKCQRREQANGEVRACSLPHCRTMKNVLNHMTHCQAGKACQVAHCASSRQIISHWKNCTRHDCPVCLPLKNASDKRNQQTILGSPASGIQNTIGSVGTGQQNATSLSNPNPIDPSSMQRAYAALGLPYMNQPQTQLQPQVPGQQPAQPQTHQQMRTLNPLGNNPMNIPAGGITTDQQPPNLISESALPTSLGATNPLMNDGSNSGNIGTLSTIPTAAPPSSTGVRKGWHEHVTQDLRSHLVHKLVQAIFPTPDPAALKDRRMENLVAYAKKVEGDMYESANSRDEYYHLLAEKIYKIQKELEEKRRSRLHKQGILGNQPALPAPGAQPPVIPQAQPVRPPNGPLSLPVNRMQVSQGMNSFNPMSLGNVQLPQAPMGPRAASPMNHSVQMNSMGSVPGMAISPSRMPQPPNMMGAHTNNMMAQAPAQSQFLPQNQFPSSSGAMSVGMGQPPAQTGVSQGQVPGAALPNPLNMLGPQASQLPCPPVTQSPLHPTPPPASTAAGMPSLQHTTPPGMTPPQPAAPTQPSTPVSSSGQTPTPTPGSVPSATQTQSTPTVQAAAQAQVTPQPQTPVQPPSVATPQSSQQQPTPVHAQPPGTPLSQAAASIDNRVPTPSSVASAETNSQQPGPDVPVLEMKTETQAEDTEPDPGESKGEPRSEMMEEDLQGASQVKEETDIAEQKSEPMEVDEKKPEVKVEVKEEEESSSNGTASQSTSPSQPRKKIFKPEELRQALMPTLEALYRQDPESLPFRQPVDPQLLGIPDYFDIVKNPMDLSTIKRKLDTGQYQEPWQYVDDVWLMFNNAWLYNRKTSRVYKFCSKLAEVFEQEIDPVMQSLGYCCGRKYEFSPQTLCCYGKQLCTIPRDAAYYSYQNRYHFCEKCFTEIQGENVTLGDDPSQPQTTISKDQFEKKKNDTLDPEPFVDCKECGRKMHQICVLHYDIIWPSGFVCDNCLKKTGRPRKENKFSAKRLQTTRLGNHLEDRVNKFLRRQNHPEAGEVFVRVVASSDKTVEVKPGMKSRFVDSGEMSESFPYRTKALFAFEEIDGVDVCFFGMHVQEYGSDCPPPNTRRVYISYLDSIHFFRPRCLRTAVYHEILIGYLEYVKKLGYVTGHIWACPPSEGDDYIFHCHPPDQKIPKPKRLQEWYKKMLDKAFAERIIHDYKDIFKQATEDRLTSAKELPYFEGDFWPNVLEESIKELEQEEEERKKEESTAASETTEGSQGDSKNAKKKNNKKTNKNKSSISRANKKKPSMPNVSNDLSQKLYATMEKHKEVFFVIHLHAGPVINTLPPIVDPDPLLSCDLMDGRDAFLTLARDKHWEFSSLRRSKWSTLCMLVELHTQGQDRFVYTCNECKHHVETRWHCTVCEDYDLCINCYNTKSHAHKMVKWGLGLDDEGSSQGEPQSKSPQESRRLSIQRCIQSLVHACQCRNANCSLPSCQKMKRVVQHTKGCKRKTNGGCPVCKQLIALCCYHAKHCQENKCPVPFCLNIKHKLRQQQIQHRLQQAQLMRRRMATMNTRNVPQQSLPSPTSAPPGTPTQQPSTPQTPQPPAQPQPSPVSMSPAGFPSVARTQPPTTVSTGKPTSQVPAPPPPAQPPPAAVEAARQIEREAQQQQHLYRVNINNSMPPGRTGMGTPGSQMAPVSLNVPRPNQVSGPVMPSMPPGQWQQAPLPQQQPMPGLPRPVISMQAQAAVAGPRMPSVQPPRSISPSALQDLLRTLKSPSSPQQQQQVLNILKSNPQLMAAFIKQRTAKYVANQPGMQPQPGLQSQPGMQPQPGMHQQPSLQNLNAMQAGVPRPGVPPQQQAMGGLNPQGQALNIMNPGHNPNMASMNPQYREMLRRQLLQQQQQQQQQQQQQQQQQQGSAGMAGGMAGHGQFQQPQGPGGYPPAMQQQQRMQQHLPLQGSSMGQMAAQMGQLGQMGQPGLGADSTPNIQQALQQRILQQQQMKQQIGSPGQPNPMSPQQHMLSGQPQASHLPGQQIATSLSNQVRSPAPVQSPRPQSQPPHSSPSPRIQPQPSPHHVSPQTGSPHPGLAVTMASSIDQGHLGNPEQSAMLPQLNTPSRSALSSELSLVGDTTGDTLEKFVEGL
Protocol: IC50 Measurements for Inhibitors Using CBP TR FRET Binding Assay
His/Flag epitope tagged CBP was cloned, expressed, and purified to homogeneity. CBP binding and inhibition was assessed by monitoring the engagement of a biotinylated small molecule compound with the target using the TR-FRET assay technology (Perkin-Elmer). Specifically, in a 384 well ProxiPlate CBP (4 nM final) was combined with biotin-ligand (60 nM final) in 50 mM HEPES (pH 7.5), 50 mM NaCl, 1 mM TCEP, 0.01% (w/v) BSA, and 0.008% (w/v) Brij-35 either in the presence of DMSO (final 0.2% DMSO) or compound dilution series in DMSO. […] After twenty minutes of equilibration, the plates were read on an Envision instrument and IC50S calculated using a four parameter non-linear curve fit.

| SMILES | IC50 |
| --- | --- |
| CNC(=O)c1cn(C)c2c(C3CCOCC3)cc(N3CCCc4cc(-c5cnn(C)c5)c(C(F)F)cc43)cc12 [Example 105, 5-(7-(difluoromethyl)-6-(1-methyl-1H-pyrazol-4-yl)-3,4-dihydroquinolin-1(2H)-yl)-N,1-dimethyl-7-(tetrahydro-2H-pyran-4-yl)-1H-indole-3-carboxamide] | 0.011 µM |
| CNC(=O)N1CCOc2ccc(-c3ccc4[nH]ccc4c3)cc2C1 [Example 13] | 0.267 µM |
| CCc1cc(-c2ccccc2C)cc2c1OCCN(C(=O)NC)C2 [Example 109, 9-ethyl-N-methyl-7-(o-tolyl)-2,3-dihydrobenzo[f][1,4]oxazepine-4(5H)-carboxamide] | 0.273 µM |
| Cn1cc(-c2cc3cccc(-c4ccc5c(c4)n(C)c(=O)n5C)c3cn2)cn1 [Example 94, 1,3-dimethyl-5-(3-(1-methyl-1H-pyrazol-4-yl)isoquinolin-8-yl)-1H-benzo[d]imidazol-2(3H)-one] | 0.09 µM |
| Cn1cc(-c2cc3c(cc2C(F)F)N(c2ccc4c(n2)n(C)c(=O)n4C)CCC3)cn1 [Example 26] | 2.28 µM |
| C#Cc1cc(N2CCCc3cc(-c4cnn(C)c4)c(C(F)F)cc32)cc2c1n(C)c(=O)n2C [Example 101, 6-(7-(difluoromethyl)-6-(1-methyl-1H-pyrazol-4-yl)-3,4-dihydroquinolin-1(2H)-yl)-4-ethynyl-1,3-dimethyl-1H-benzo[d]imidazol-2(3H)-one] | 0.012 µM |
| CNC(=O)[C@H]1CCc2ccc(N3CCCc4cc(-c5cnn(C)c5)c(C(F)F)cc43)nc21 [Example 117, (S)-2-(7-(difluoromethyl)-6-(1-methyl-1H-pyrazol-4-yl)-3,4-dihydroquinolin-1(2H)-yl)-N-methyl-6,7-dihydro-5H-cyclopenta[b]pyridine-7-carboxamide] | 0.04 µM |
| CC(=O)N1CCc2c(cc(-c3cccc4cc(-c5cnn(C)c5)ncc34)c(=O)n2C)C1 [Example 88, 6-acetyl-1-methyl-3-[3-(1-methylpyrazol-4-yl)-8-isoquinolyl]-7,8-dihydro-5H-1,6-naphthyridin-2-one] | 0.258 µM |
| CNC(=O)c1ccc2nccc(N3CCCc4cc(-c5cnn(C)c5)ccc43)c2c1 [Example 29] | 0.16 µM |
| CNC(=O)c1cn(C)c2c(OC)cc(N3CCCc4cc(-c5cnn(C)c5)c(C(F)F)cc43)cc12 [Example 106, 5-(7-(difluoromethyl)-6-(1-methyl-1H-pyrazol-4-yl)-3,4-dihydroquinolin-1(2H)-yl)-7-methoxy-N,1-dimethyl-1H-indole-3-carboxamide] | 0.016 µM |
| CCn1cc(C(=O)NC)c2cc(N3CCCc4cc(-c5cnn(C)c5)c(C(F)F)cc43)ccc21 [Example 51] | 0.027 µM |
| CC1C(=O)N(C)c2cc(N3CCCc4cc(-c5cnn(C)c5)c(C(F)F)cc43)ccc21 (stereo in doubt) [Example 93, (S)-6-[7-(difluoromethyl)-6-(1-methylpyrazol-4-yl)-3,4-dihydro-2H-quinolin-1-yl]-1,3-dimethyl-indolin-2-one] | 0.095 µM |
| CNC(=O)c1ccc2c(n1)c(N1CCCc3cc(-c4cnn(C)c4)c(C(F)F)cc31)nn2C1CCOCC1 [Example 125, 3-(7-(difluoromethyl)-6-(1-methyl-1H-pyrazol-4-yl)-3,4-dihydroquinolin-1(2H)-yl)-N-methyl-1-(tetrahydro-2H-pyran-4-yl)-1H-pyrazolo[4,3-b]pyridine-5-carboxamide] | 0.002 µM |
| CNC(=O)N1CCOc2ccc(-c3cccc4nc(-c5ccc(OC)cc5)cn34)cc2C1 [Example 86, 7-[2-(4-methoxyphenyl)imidazo[1,2-a]pyridin-5-yl]-N-methyl-3,5-dihydro-2H-1,4-benzoxazepine-4-carboxamide] | 0.081 µM |
| CNC(=O)N1CCOc2c(cc(-c3ccccc3C)cc2C(C)C)C1 [Example 110, 9-isopropyl-N-methyl-7-(o-tolyl)-2,3-dihydrobenzo[f][1,4]oxazepine-4(5H)-carboxamide] | 0.201 µM |
| CNC(=O)N1CCOc2ccc(-c3cccc4ncccc34)cc2C1 [Example 6] | 0.362 µM |
| CCC(=O)N1CCOc2ccc(N3CCCc4cc(-c5cnn(C)c5)ccc43)cc2C1 [Example 79, 1-(7-(6-(1-methyl-1H-pyrazol-4-yl)-3,4-dihydroquinolin-1(2H)-yl)-2,3-dihydrobenzo[f][1,4]oxazepin-4(5H)-yl)propan-1-one] | 0.077 µM |
| CNC(=O)N1CCOc2c(cc(-c3ccccc3C)cc2OC)C1 [Example 111, 9-methoxy-N-methyl-7-(o-tolyl)-2,3-dihydrobenzo[f][1,4]oxazepine-4(5H)-carboxamide] | 0.409 µM |
| C[C@H]1Oc2c(cccc2N2CCCc3cc(-c4cnn(C)c4)c(C(F)F)cc32)NC1=O [Example 115, (R)-8-(7-(difluoromethyl)-6-(1-methyl-1H-pyrazol-4-yl)-3,4-dihydroquinolin-1(2H)-yl)-2-methyl-2H-benzo[b][1,4]oxazin-3(4H)-one] | 0.077 µM |
| CCCc1cc(N2CCCc3cc(-c4cnn(C)c4)c(C(F)F)cc32)cc2c1n(C)c(=O)n2C [Example 99, 6-(7-(difluoromethyl)-6-(1-methyl-1H-pyrazol-4-yl)-3,4-dihydroquinolin-1(2H)-yl)-1,3-dimethyl-4-propyl-1H-benzo[d]imidazol-2(3H)-one] | 0.019 µM |
| CNC(=O)Nc1cccc(N2CCCc3cc(-c4cnn(C)c4)c(C(F)F)cc32)n1 [Example 122, 1-(6-(7-(difluoromethyl)-6-(1-methyl-1H-pyrazol-4-yl)-3,4-dihydroquinolin-1(2H)-yl)pyridin-2-yl)-3-methylurea] | 0.088 µM |
| Cn1cc(-c2cc3c(cc2C(F)F)N(c2cc(C4CC4)c4c(c2)n(C)c(=O)n4C)CCC3)cn1 [Example 38] | 0.016 µM |
| CNC(=O)[C@@H]1CCc2ccc(N3CCCc4cc(-c5cnn(C)c5)c(C(F)F)cc43)nc21 [Example 118, (R)-2-(7-(difluoromethyl)-6-(1-methyl-1H-pyrazol-4-yl)-3,4-dihydroquinolin-1(2H)-yl)-N-methyl-6,7-dihydro-5H-cyclopenta[b]pyridine-7-carboxamide] | 3.24 µM |
| CNC(=O)c1cnn2ccc(N3CCCc4cc(-c5cnn(C)c5)c(C(F)F)cc43)cc12 [Example 30] | 0.543 µM |
| CC1C(=O)N(C)c2cc(N3CCCc4cc(-c5cnn(C)c5)c(C(F)F)cc43)ccc21 (stereo in doubt) [Example 92, (R)-6-[7-(difluoromethyl)-6-(1-methylpyrazol-4-yl)-3,4-dihydro-2H-quinolin-1-yl]-1,3-dimethyl-indolin-2-one] | 0.042 µM |
| Cn1cc(-c2ccc3c(c2)CCCN3c2ccc3sc(=O)n(C)c3c2)cn1 [Example 23] | 0.317 µM |
| CNc1cc(N2CCCc3cc(-c4cnn(C)c4)c(C(F)F)cc32)cc2c1n(C)c(=O)n2C [Example 42] | 0.019 µM |
| CNC(=O)N1CCOc2ccc(-c3cccc4cnn(C)c34)cc2C1 [Example 8] | 0.394 µM |
| CNC(=O)c1ccc2c(c1)n(-c1cccc3cc(-c4cnn(C)c4)ncc13)c(=O)n2C [Example 103, N,1-dimethyl-3-(3-(1-methyl-1H-pyrazol-4-yl)isoquinolin-8-yl)-2-oxo-2,3-dihydro-1H-benzo[d]imidazole-5-carboxamide] | 0.222 µM |
| CNC(=O)N1CCOc2ccc(-c3cc(C)ccc3C)cc2C1 [Example 7] | 0.273 µM |

Results, then the compound that gave them:

| IC50 | SMILES |
| --- | --- |
| 0.187 µM | CNC(=O)N1CCOc2ccc(-c3cccc(-c4cnn(C)c4)c3C(F)F)cc2C1 [Example 77, 7-(2-(difluoromethyl)-3-(1-methyl-1H-pyrazol-4-yl)phenyl)-N-methyl-2,3-dihydrobenzo[f][1,4]oxazepine-4(5H)-carboxamide] |
| 0.296 µM | CNC(=O)N1CCOc2ccc(-c3cccc4nn(C)cc34)cc2C1 [Example 5] |
| 0.199 µM | COC(=O)c1ccc2nccc(N3CCCc4cc(-c5cnn(C)c5)ccc43)c2c1 [Example 28] |
| 0.244 µM | Cn1cc(-c2ccc3c(c2)CCCN3c2cnc3[nH]cc(-c4cnn(C)c4)c3n2)cn1 [Example 75, 6-(1-methyl-1H-pyrazol-4-yl)-1-(7-(1-methyl-1H-pyrazol-4-yl)-5H-pyrrolo[2,3-b]pyrazin-2-yl)-1,2,3,4-tetrahydroquinoline] |
| 0.078 µM | CNC(=O)N1CCOc2ccc(-c3c(C)ccc4[nH]ncc34)cc2C1 [Example 9] |
| 0.45 µM | CNC(=O)N1CCN(C)c2ccc(-c3ccccc3C)cc2C1 [Example 85, N,1-dimethyl-7-(o-tolyl)-3,5-dihydro-2H-1,4-benzodiazepine-4-carboxamide] |
| 0.026 µM | CNC(=O)c1cn(C)c2cnc(N3CCCc4cc(-c5cnn(C)c5)c(C(F)F)cc43)nc12 [Example 61] |
| 0.193 µM | CNC(=O)N1CCOc2ccc(-c3ccnc4ccccc34)cc2C1 [Example 4] |
| 0.243 µM | CNC(=O)N1CCOc2ccc(-c3c(C)ccc(-c4cnn(C)c4)c3C(F)F)cc2C1 [Example 76, 7-(2-(difluoromethyl)-6-methyl-3-(1-methyl-1H-pyrazol-4-yl)phenyl)-N-methyl-2,3-dihydrobenzo[f][1,4]oxazepine-4(5H)-carboxamide] |
| 0.038 µM | Cn1cc(-c2cc3c(cc2C(F)F)N(c2cnc4c(c2)n(C)c(=O)n4C)CCC3)cn1 [Example 25] |
| 0.03 µM | CN1CCN(c2ccc3c(c2)n(C)c(=O)n3C)c2cc(C(F)(F)F)c(-c3cnn(C)c3)cc21 [Example 95, 1,3-dimethyl-5-(4-methyl-6-(1-methyl-1H-pyrazol-4-yl)-7-(trifluoromethyl)-3,4-dihydroquinoxalin-1(2H)-yl)-1H-benzo[d]imidazol-2(3H)-one] |
| 0.102 µM | CNC(=O)N1CCOc2ccc(-c3cccc4[nH]ncc34)cc2C1 [Example 14] |
| 0.048 µM | CCn1c(=O)n(C)c2ccc(N3CCCc4cc(-c5cnn(C)c5)c(C(F)F)cc43)cc21 [Example 32] |
| 0.281 µM | CNC(=O)N1CCOc2ccc(-c3cncc4ccccc34)cc2C1 [Example 11] |

tested on: MYC; assay: MYC RPL19 QuantiGene assay in MV-4-11 cells; format: cell-based; conditions: Homo sapiens, MV4-11, compound 4 hours
Text: MYC RPL19 QuantiGene assay in MV-4-11 Cells

| SMILES | IC50 |
| --- | --- |
| CNC(=O)c1cn(C)c2c(C3CCOCC3)cc(N3CCCc4cc(-c5cnn(C)c5)c(C(F)F)cc43)cc12 [Example 105, 5-(7-(difluoromethyl)-6-(1-methyl-1H-pyrazol-4-yl)-3,4-dihydroquinolin-1(2H)-yl)-N,1-dimethyl-7-(tetrahydro-2H-pyran-4-yl)-1H-indole-3-carboxamide] | 0.086 µM |
| C[C@H]1Nc2c(cccc2N2CCCc3cc(-c4cnn(C)c4)c(C(F)F)cc32)NC1=O [Example 81, (R)-5-(7-(difluoromethyl)-6-(1-methyl-1H-pyrazol-4-yl)-3,4-dihydroquinolin-1(2H)-yl)-3-methyl-3,4-dihydroquinoxalin-2(1H)-one] | 0.131 µM |
